These results are taken from paper PMC9227830, “Neuroprotective Effect of Yucca schidigera Roezl ex Ortgies Bark Phenolic Fractions, Yuccaol B and Gloriosaol A on Scopolamine-Induced Memory Deficits in Zebrafish” (Molecules, 2022).

The target of this assay is T1, Glycine max (soybean) 15-lipoxygenase (15-LOX) (Glycine max, UniProt P08170).
T1 construct: gene LOX1.1; commercial native soybean enzyme (Sigma-Aldrich)
T1 sequence (P08170 1-839): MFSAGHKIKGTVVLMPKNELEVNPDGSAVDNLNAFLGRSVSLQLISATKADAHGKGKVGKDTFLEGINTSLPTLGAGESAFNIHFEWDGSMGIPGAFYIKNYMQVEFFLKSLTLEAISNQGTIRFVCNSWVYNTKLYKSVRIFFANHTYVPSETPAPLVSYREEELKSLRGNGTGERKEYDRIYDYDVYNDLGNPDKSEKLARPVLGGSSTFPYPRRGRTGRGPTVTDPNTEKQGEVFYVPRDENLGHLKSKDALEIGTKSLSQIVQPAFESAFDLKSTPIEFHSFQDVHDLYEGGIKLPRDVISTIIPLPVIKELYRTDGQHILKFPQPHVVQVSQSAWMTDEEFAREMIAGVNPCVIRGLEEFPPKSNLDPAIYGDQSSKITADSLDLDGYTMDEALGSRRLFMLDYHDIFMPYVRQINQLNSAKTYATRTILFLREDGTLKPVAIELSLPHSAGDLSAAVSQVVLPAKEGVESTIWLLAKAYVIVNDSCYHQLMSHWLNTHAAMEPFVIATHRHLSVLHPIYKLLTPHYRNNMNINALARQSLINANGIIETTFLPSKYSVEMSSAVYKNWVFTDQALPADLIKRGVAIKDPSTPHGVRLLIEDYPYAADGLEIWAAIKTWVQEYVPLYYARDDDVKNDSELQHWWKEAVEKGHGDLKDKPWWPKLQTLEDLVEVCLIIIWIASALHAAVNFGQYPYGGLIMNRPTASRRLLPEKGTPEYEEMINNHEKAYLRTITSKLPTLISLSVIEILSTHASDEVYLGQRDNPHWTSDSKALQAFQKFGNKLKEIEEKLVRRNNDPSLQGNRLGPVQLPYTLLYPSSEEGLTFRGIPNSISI
Kind of assay: UV spectrophotometry at […] nm, linoleic acid oxidation (modified Malterud). It is filed as biochemical. The note with it: read-out: EC50 (the source's name) (converted).
For `O=C1O[C@H]([C@@H](O)CO)C(O)=C1O` [vitamin C, reference compound], the IC50 was 122 µM.
Then `COc1c(O)cc(/C=C/c2cc(O)cc3c2[C@]2(C(=O)O3)c3c(O)cc(O)cc3O[C@H]2c2ccc(O)cc2)c2c1OC(=O)[C@]21c2c(O)cc(O)cc2O[C@H]1c1ccc(O)cc1` [GloA, gloriosaol A], with 15.2 µM; and `O=C1Oc2cc(O)cc(/C=C/c3ccc(O)cc3)c2[C@@]12c1c(O)cc(O)cc1O[C@H]2c1ccc(O)cc1` [YuB, yuccaol B], with 19.5 µM.
